Measurements from patent US20260274833A1 (NiKang Therapeutics, Inc., priority 2022, published 2026).

Molecular target: T1, CDK2 (Homo sapiens, UniProt P24941)
T1 construct: endogenous in cells; host or cells: OVCAR3 cells
Assay: Phospho-RB measurement in OVCAR3 cells (HTRF phospho-RB cellular kit)
Assay type: cell-based
Settings: 24 h compound treatment
Method in brief: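 IC50 came from a four-parameter logistic fit of the DMSO-normalized TR-FRET ratio (665/620 nm). That ratio reflects RB phosphorylation at S807/811, read with an HTRF antibody pair 4 h after adding lysate at room temperature.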

[1] = inhibition of RB phosphorylation at S807/811 (HTRF, TR-FRET ratio 665/620), 0.3 to 10,000 nM
[2] = inhibition of RB phosphorylation at S807/811 (HTRF)

| Compound | IC50 [1] [nM] | IC50 [2] [nM] |
| --- | --- | --- |
| CC(C)(C)c1nc(-c2cccc(NS(=O)(=O)N3Cc4cc(F)c(F)cc4C3)c2F)c(-c2ccnc(NC3CCN(S(C)(=O)=O)CC3)n2)s1 [Example 77] | 367 | – |
| COc1cccc2c1CN(S(=O)(=O)Nc1cccc(-c3nc(C(C)(C)C)sc3-c3ccnc(NC4CCN(S(C)(=O)=O)CC4)n3)c1F)C2 [Example 78, N-(3-(2-(tert-butyl)-5-(2-((1-(methylsulfonyl)-piperidin-4-yl)amino)-pyrimidin-4-yl)thiazol-4-yl)-2-fluoro-phenyl)-4-methoxyisoindoline-2-sulfonamide] | 65.6 | – |
| CC(C)(C)c1nc(-c2cccc(NS(=O)(=O)N3Cc4ccccc4C3)c2F)c(-c2ccnc(Nc3ccc(N4CCNCC4)cc3)n2)s1 [Example 79, N-(3-(2-(tert-butyl)-5-(2-((4-(piperazin-1-yl)-phenyl)amino)pyrimidin-4-yl)thiazol-4-yl)-2-fluorophenyl)-isoindoline-2-sulfonamide] | 220 | – |
| CC(C)(C)c1nc(-c2cccc(NS(=O)(=O)N3CCCc4ccccc4C3)c2F)c(-c2ccnc(NC3CCN(S(C)(=O)=O)CC3)n2)s1 [Example 80, N-(3-(2-(tert-butyl)-5-(2-((1-(methylsulfonyl)-piperidin-4-yl)amino)-pyrimidin-4-yl)thiazol-4-yl)-2-fluorophenyl)-1,3,4,5-tetrahydro-2H-benzo[c]azepine-2-sulfonamide] | 172 | – |
| CC(C)(C)c1nc(-c2cccc(NS(=O)(=O)N3CCc4ccccc4CC3)c2F)c(-c2ccnc(NC3CCN(S(C)(=O)=O)CC3)n2)s1 [Example 81, N-(3-(2-(tert-butyl)-5-(2-((1-(methylsulfonyl)-piperidin-4-yl)amino)-pyrimidin-4-yl)thiazol-4-yl)-2-fluoro-phenyl)-1,2,4,5-tetrahydro-3H-benzo[d]azepine-3-sulfonamide] | 3730 | – |
| CC(C)(C)c1nc(-c2cccc(NS(=O)(=O)N3CCCCc4ccccc43)c2F)c(-c2ccnc(NC3CCN(S(C)(=O)=O)CC3)n2)s1 [Example 82, N-(3-(2-(tert-butyl)-5-(2-((1-(methylsulfonyl)piperidin-4-yl)amino)-pyrimidin-4-yl)thiazol-4-yl)-2-fluorophenyl)-2,3,4,5-tetrahydro-1H-benzo[b]azepine-1-sulfonamide] | 850 | – |
| CC(C)(C)c1nc(-c2cccc(NS(=O)(=O)N3CCn4cncc4C3)c2F)c(-c2ccnc(NC3CCN(S(C)(=O)=O)CC3)n2)s1 [Example 83, N-(3-(2-(tert-butyl)-5-(2-((1-(methylsulfonyl)-piperidin-4-yl)amino)-pyrimidin-4-yl)thiazol-4-yl)-2-fluoro-phenyl)-5,6-dihydroimidazo [1,5-a]-pyrazine-7 (8H)-sulfonamide] | 1470 | – |
| CC(C)(C)c1nc(-c2cccc(NS(=O)(=O)N3CCn4ccnc4C3)c2F)c(-c2ccnc(NC3CCN(S(C)(=O)=O)CC3)n2)s1 [Example 84, N-(3-(2-(tert-butyl)-5-(2-((1-(methylsulfonyl)-piperidin-4-yl)amino)-pyrimidin-4-yl)thiazol-4-yl)-2-fluoro-phenyl)-5,6-dihydroimidazo [1,2-a]-pyrazine-7(8H)-sulfonamide] | 1920 | – |
| Cn1ncc2c1CN(S(=O)(=O)Nc1cccc(-c3nc(C(C)(C)C)sc3-c3ccnc(NC4CCN(S(C)(=O)=O)CC4)n3)c1F)C2 [Example 85, N-(3-(2-(tert-butyl)-5-(2-((1-(methylsulfonyl)-piperidin-4-yl)amino)-pyrimidin-4-yl)thiazol-4-yl)-2-fluoro-phenyl)-1-methyl-4,6-dihydro-pyrrolo[3,4-c]pyrazole-5(1H)-sulfonamide] | 394 | – |
| Cn1cc2c(n1)CN(S(=O)(=O)Nc1cccc(-c3nc(C(C)(C)C)sc3-c3ccnc(NC4CCN(S(C)(=O)=O)CC4)n3)c1F)C2 [Example 86, N-(3-(2-(tert-butyl)-5-(2-((1-(methylsulfonyl)-piperidin-4-yl)amino)-pyrimidin-4-yl)thiazol-4-yl)-2-fluoro-phenyl)-2-methyl-2,6-dihydro-pyrrolo[3,4-c]pyrazole-5(4H)-sulfonamide] | 484 | – |
| COc1cc2c(cc1OC)CN(S(=O)(=O)Nc1cccc(-c3nc(C(C)(C)C)sc3-c3ccnc(NC4CCN(S(C)(=O)=O)CC4)n3)c1F)C2 [Example 87, N-(3-(2-(tert-butyl)-5-(2-((1-(methylsulfonyl)-piperidin-4-yl)amino)-pyrimidin-4-yl)thiazol-4-yl)-2-fluorophenyl)-5,6-dimethoxy-isoindoline-2-sulfonamide] | 325 | – |
| CC(=O)N1CCN(S(=O)(=O)Nc2cccc(-c3nc(C(C)(C)C)sc3-c3ccnc(NC4CCN(S(C)(=O)=O)CC4)n3)c2F)CC1 [Example 88, 4-acetyl-N-(3-(2-(tert-butyl)-5-(2-((1-(methylsulfonyl)piperidin-4-yl)amino)-pyrimidin-4-yl)thiazol-4-yl)-2-fluoro-phenyl)-piperazine-1-sulfonamide] | – | > 10000 |
| CN1CCN(S(=O)(=O)Nc2cccc(-c3nc(C(C)(C)C)sc3-c3ccnc(NC4CCN(S(C)(=O)=O)CC4)n3)c2F)CC1=O [Example 89, N-(3-(2-(tert-butyl)-5-(2-((1-(methylsulfonyl)-piperidin-4-yl)amino)-pyrimidin-4-yl)thiazol-4-yl)-2-fluoro-phenyl)-4-methyl-3-oxopiperazine-1-sulfonamide] | 4810 | – |
| CC(C)(C)c1nc(-c2cccc(NS(=O)(=O)N3CCn4cnnc4C3)c2F)c(-c2ccnc(NC3CCN(S(C)(=O)=O)CC3)n2)s1 [Example 90, N-(3-(2-(tert-butyl)-5-(2-((1-(methylsulfonyl)-piperidin-4-yl)amino)-pyrimidin-4-yl)thiazol-4-yl)~2~fluoro-phenyl)-5,6-dihydro-[1,2,4] triazolo-[4,3-a]pyrazine-7(8H)-sulfonamide] | – | > 10000 |
| CC(C)(C)c1nc(-c2cccc(NS(=O)(=O)N3CCOc4ccccc4C3)c2F)c(-c2ccnc(NC3CCN(S(C)(=O)=O)CC3)n2)s1 [Example 91, N-(3-(2-(tert-butyl)-5-(2-((1-(methylsulfonyl)-piperidin-4-yl)amino)-pyrimidin-4-yl)thiazol-4-yl)-2-fluorophenyl)-2,3-dihydrobenzo [f][1,4]-oxazepine-4 (5H)-sulfonamide] | 117 | – |
| CC(C)(C)c1nc(-c2cccc(NS(=O)(=O)N3CCc4cc(C#N)ccc43)c2F)c(-c2ccnc(NC3CCN(S(C)(=O)=O)CC3)n2)s1 [Example 92, N-(3-(2-(tert-butyl)-5-(2-((1-(methylsulfonyl)piperidin-4-yl)amino)-pyrimidin-4-yl)thiazol-4-yl)-2-fluorophenyl)-5-cyanoindoline-1-sulfonamide] | 305 | – |
| CC(C)(C)c1nc(-c2cccc(NS(=O)(=O)N3CCN(S(C)(=O)=O)CC3)c2F)c(-c2ccnc(NC3CCN(S(C)(=O)=O)CC3)n2)s1 [Example 93, N-(3-(2-(tert-butyl)-5-(2-((1-(methylsulfonyl)piperidin-4-yl)amino)-pyrimidin-4-yl)thiazol-4-yl)-2-fluorophenyl)-4-(methylsulfonyl)-piperazine-1-sulfonamide] | 3030 | – |
| CC(C)(C)c1nc(-c2cccc(NS(=O)(=O)N3CCn4c(nnc4C(F)(F)F)C3)c2F)c(-c2ccnc(NC3CCN(S(C)(=O)=O)CC3)n2)s1 [Example 94, N-(3-(2-(tert-butyl)-5-(2-((1-(methylsulfonyl)-piperidin-4-yl)amino)-pyrimidin-4-yl)thiazol-4-yl)-2-fluoro-phenyl)-3-(trifluoromethyl)-5,6-dihydro-[1,2,4]triazolo [4,3-a]pyrazine-7(8H)-sulfonamide] | 5940 | – |
| CC(C)(C)c1nc(-c2cccc(NS(=O)(=O)N3Cc4cccnc4C3)c2F)c(-c2ccnc(NC3CCN(S(C)(=O)=O)CC3)n2)s1 [Example 95, N-(3-(2-(tert-butyl)-5-(2-((1-(methylsulfonyl)piperidin-4-yl)amino)-pyrimidin-4-yl)thiazol-4-yl)-2-fluoro-phenyl)-5,7-dihydro-6H-pyrrolo-[3,4-b]pyridine-6-sulfonamide] | 610 | – |
| CN(C)S(=O)(=O)Nc1cccc(-c2nc(C(C)(C)C)sc2-c2ccnc(NC3CCN(S(=O)(=O)N4CCNCC4)CC3)n2)c1F [Example 96, N-(3-(2-(tert-butyl)-5-(2-((1-(piperazin-1-ylsulfonyl)piperidin-4-yl)amino)-pyrimidin-4-yl)thiazol-4-yl)-2-fluorophenyl) dimethylamine-sulfonamide] | 454 | – |
| CC(C)(C)c1nc(-c2cccc(NS(=O)(=O)N3Cc4ccc(C#N)cc4C3)c2F)c(-c2ccnc(NC3CCN(S(C)(=O)=O)CC3)n2)s1 [Example 97, N-(3-(2-(tert-butyl)-5-(2-((1-(methylsulfonyl)piperidin-4-yl)amino)-pyrimidin-4-yl)thiazol-4-yl)-2-fluorophenyl)-5-cyanoisoindoline-2-sulfonamide] | 285 | – |
| CC(C)(C)c1nc(-c2cccc(NS(=O)(=O)N3CCOc4ccccc43)c2F)c(-c2ccnc(NC3CCN(S(C)(=O)=O)CC3)n2)s1 [Example 98, N-(3-(2-(tert-butyl)-5-(2-((1-(methylsulfonyl)piperidin-4-yl)amino)-pyrimidin-4-yl)thiazol-4-yl)-2-fluoro-phenyl)-2,3-dihydro-4H-benzo[b][1,4]-oxazine-4-sulfonamide] | 511 | – |
| CN1CCN(S(=O)(=O)Nc2cccc(-c3nc(C(C)(C)C)sc3-c3ccnc(NC4CCN(S(C)(=O)=O)CC4)n3)c2F)c2ccccc21 [Example 99, N-(3-(2-(tert-butyl)-5-(2-((1-(methylsulfonyl)piperidin-4-yl)amino)-pyrimidin-4-yl)thiazol-4-yl)-2-fluoro-phenyl)-4-methyl-3,4-dihydro-quinoxaline-1(2H)-sulfonamide] | 202 | – |
| CN(c1ccccc1)S(=O)(=O)Nc1cccc(-c2nc(C(C)(C)C)sc2-c2ccnc(NC3CCN(S(C)(=O)=O)CC3)n2)c1F [Example 100, N-(3-(2-(tert-butyl)-5-(2-((1-(methylsulfonyl)piperidin-4-yl)amino)-pyrimidin-4-yl)thiazol-4-yl)-2-fluorophenyl)(N-methyl-N-phenyl)-aminosulfonamide] | 1240 | – |
